Results from BindingDB's records for doi:10.1016/S0960-894X(01)81027-1 (1993).
Where a name gives a salt, the structure may show the parent alone.

These compounds were tested against Sigma non-opioid intracellular receptor 1 (Cavia porcellus) (UniProt Q60492) (assay: The compound was evaluated for binding affinity against sigma receptor using [3H]DTG radioligand in guinea pig membranes).
Sigma non-opioid intracellular receptor 1 (Cavia porcellus), sequence (Q60492 whole entry, looked up): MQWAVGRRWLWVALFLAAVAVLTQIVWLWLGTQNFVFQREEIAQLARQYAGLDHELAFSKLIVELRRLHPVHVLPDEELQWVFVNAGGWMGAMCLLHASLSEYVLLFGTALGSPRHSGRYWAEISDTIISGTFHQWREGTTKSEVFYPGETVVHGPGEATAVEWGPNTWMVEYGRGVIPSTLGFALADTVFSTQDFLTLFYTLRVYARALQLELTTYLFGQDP

Structure (SMILES)	IC50
CC(=Nc1ccc(Br)cc1C)Nc1ccc(Br)cc1C [N,N'-Bis-(4-bromo-2-methyl-phenyl)-acetamidine]	26 nM
CC(=NC12CC3CC(CC(C3)C1)C2)NC12CC3CC(CC(C3)C1)C2 [N,N'-Di-adamantan-1-yl-acetamidine]	16 nM
CC(=Nc1ccccc1C)Nc1ccccc1C [N,N'-Di-o-tolyl-acetamidine; hydrochloride]	15 nM
CC(=NC12CC3CC(CC(C3)C1)C2)NC1CCCCC1 [N-Adamantan-1-yl-N'-cyclohexyl-acetamidine]	72 nM
CC(=Nc1ccccc1C)NC12CC3CC(CC(C3)C1)C2 [N-Adamantan-1-yl-N'-o-tolyl-acetamidine; hydrochloride]	6 nM
CC(=Nc1ccccc1C)NC1CC2CCC1C2 (configuration not stated) [N-Bicyclo[2.2.1]hept-2-yl-N'-o-tolyl-acetamidine]	9 nM
CC(=Nc1ccccc1C)NC1CCCCC1 [N-Cyclohexyl-N'-o-tolyl-acetamidine; hydrochloride]	9 nM
